From patent publication US20230085307A1, “PYRIDAZINONE COMPOUND AND HERBICIDE” (NISSAN CHEMICAL CORPORATION, priority 2019, published 2023)

What was measured:
[1] = test system: Japanese bulrush; test: Test Example 1: herbicidal activity, application before weed generation under submerged conditions (Table 16, symbol B); format: in vivo, Japanese bulrush (Schoenoplectus juncoides); details: 320 g/ha applied herbicide
Method in brief: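 Emulsion formulation, water-diluted to set dose, was put onto the flooded surface (4 cm depth, alluvial soil) the same day weeds were sown and 2.5-leaf rice transplanted. After 3 weeks at 25-30 °C under glass, each species was rated 0 (≤5% kill) to 5 (≥90% kill).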

[2] = test system: late watergrass; test: Test Example 2: herbicidal activity, application during weed generation under submerged conditions (Table 17, symbol A); format: in vivo, late watergrass (Echinochloa oryzicola); details: AAH 320 g/ha; application during weed generation, submerged conditions
Method in brief: (§1)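 Effect on each weed is rated three weeks post-treatment, using the same scoring criteria as the preceding test. Plants grow from mixed-sown seed in flooded alluvial soil (4 cm water) at 25° C. to 30° C., and are treated at one to two leaves with diluted emulsion dropped onto the water.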

[3] = test system: oval-leafed pondweed; test: Test Example 2: herbicidal activity, application during weed generation under submerged conditions (Table 17, symbol C); format: in vivo, oval-leafed pondweed (Monochoria vaginalis); details: AAH 320 g/ha; application during weed generation, submerged conditions
Method in brief: as §1

[4] = test system: Chinese sprangletop; test: Test Example 3: herbicidal effect by foliage application, Wagner pot (Table 18, symbol D); format: in vivo, chinese sprangletop (Leptochloa chinensis); details: 320 g/ha
Method in brief: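 Plants were sown in alluvial soil held under 0.1–0.5 cm standing water and grown 14 days in a greenhouse at 25–30 °C. An emulsifiable formulation, water-diluted to the set dose, was then sprayed onto the foliage, and effects were scored three weeks later using previously defined criteria.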

[5] = test system: southern crabgrass; test: Test Example 4: herbicidal effect by soil treatment (Table 19, symbol F); format: in vivo, southern crabgrass (Digitaria ciliaris); details: 320 g/ha
Method in brief: (§2)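 Scoring uses the grading scale of an earlier test, three weeks post-application. Treatment consists of spraying a diluted emulsion formulation across the surface of sterilized diluvial soil in which seeds are buried near 1.5 cm deep; boxes are kept in a greenhouse between 25° C. and 30° C.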

[6] = test system: wild oat; test: Test Example 4: herbicidal effect by soil treatment (Table 19, symbol I); format: in vivo, wild oat (Avena fatua); details: 320 g/ha
Method in brief: as §2

[7] = test system: blackgrass; test: Test Example 4: herbicidal effect by soil treatment (Table 19, symbol J); format: in vivo, blackgrass (Alopecurus myosuroides); details: 320 g/ha
Method in brief: as §2

[8] = test system: Italian ryegrass; test: Test Example 4: herbicidal effect by soil treatment (Table 19, symbol K); format: in vivo, Italian ryegrass (Lolium multiflorum); details: 320 g/ha
Method in brief: as §2

[9] = test system: windgrass; test: Test Example 4: herbicidal effect by soil treatment (Table 19, symbol L); format: in vivo, windgrass (Apera spica-venti); details: 320 g/ha
Method in brief: as §2

[10] = test system: lambsquarters; test: Test Example 4: herbicidal effect by soil treatment (Table 19, symbol O); format: in vivo, lambsquarters (Chenopodium album); details: 320 g/ha
Method in brief: as §2

[11] = test system: green foxtail; test: Test Example 5: herbicidal effect by foliage application, plastic box (Table 20, symbol G); format: in vivo, green foxtail (Setaria viridis); details: foliage application, 320 g/ha, evaluated three weeks after application
Method in brief: (§3)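 Post-emergence foliar test in sterilized diluvial soil. Compound applied as water-diluted emulsion at a predetermined rate to 14-day-old plants; evaluation at three weeks.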

[12] = test system: Italian ryegrass; test: Test Example 5: herbicidal effect by foliage application, plastic box (Table 20, symbol K); format: in vivo, Italian ryegrass (Lolium multiflorum); details: foliage application, 320 g/ha, evaluated three weeks after application
Method in brief: as §3

[13] = test system: velvetleaf; test: Test Example 5: herbicidal effect by foliage application, plastic box (Table 20, symbol M); format: in vivo, velvetleaf (Abutilon theophrasti); details: foliage application, 320 g/ha, evaluated three weeks after application
Method in brief: as §3

[14] = test system: redroot pigweed; test: Test Example 5: herbicidal effect by foliage application, plastic box (Table 20, symbol N); format: in vivo, redroot pigweed (Amaranthus retroflexus); details: foliage application, 320 g/ha, evaluated three weeks after application
Method in brief: as §3

[15] = test system: lambsquarters; test: Test Example 5: herbicidal effect by foliage application, plastic box (Table 20, symbol O); format: in vivo, lambsquarters (Chenopodium album); details: foliage application, 320 g/ha, evaluated three weeks after application
Method in brief: as §3

[16] = test system: chickweed; test: Test Example 5: herbicidal effect by foliage application, plastic box (Table 20, symbol P); format: in vivo, common chickweed (Stellaria media); details: foliage application, 320 g/ha, evaluated three weeks after application
Method in brief: as §3

SMILES: CON=C(C)c1ccc(-c2sc3ccc(F)cc3c2-c2c(O)c(C)nn(C)c2=O)cc1 [2-079]
- Herbicidal effect on B: Japanese bulrush (grade 0-5) [1]: 3 (Herbicidal rate of 40% or more and less than 70%)
- herbicidal effect rating, A: late watergrass [2]: 0 (Herbicidal rate of 5% or less (almost no effect))
- herbicidal effect rating, C: oval-leafed pondweed [3]: 2 (Herbicidal rate of 20% or more and less than 40%)
- herbicidal effect on D (Chinese sprangletop), rating 0-5 [4]: 4 (Herbicidal rate of 70% or more and less than 90%)
- herbicidal effect rating, F: southern crabgrass [5]: 5 (Herbicidal rate of 90% or more (almost completely withered))
- herbicidal effect rating, I: wild oat [6]: 0 (Herbicidal rate of 5% or less (almost no effect))
- herbicidal effect rating, J: blackgrass [7]: 0 (Herbicidal rate of 5% or less (almost no effect))
- herbicidal effect rating, K: Italian ryegrass [8]: 4 (Herbicidal rate of 70% or more and less than 90%)
- herbicidal effect rating, L: windgrass [9]: 0 (Herbicidal rate of 5% or less (almost no effect))
- herbicidal effect rating, O: lambsquarters [10]: 5 (Herbicidal rate of 90% or more (almost completely withered))
- herbicidal effect on G: green foxtail [11]: 5 (Herbicidal rate of 90% or more (almost completely withered))
- herbicidal effect on K: Italian ryegrass [12]: 5 (Herbicidal rate of 90% or more (almost completely withered))
- herbicidal effect on M: velvetleaf [13]: 5 (Herbicidal rate of 90% or more (almost completely withered))
- herbicidal effect on N: redroot pigweed [14]: 5 (Herbicidal rate of 90% or more (almost completely withered))
- herbicidal effect on O: lambsquarters [15]: 5 (Herbicidal rate of 90% or more (almost completely withered))
- herbicidal effect on P: chickweed [16]: 5 (Herbicidal rate of 90% or more (almost completely withered))

SMILES: CCCC(=O)Oc1c(C)nn(C)c(=O)c1-c1c(-c2ccc(C(C)=NOC)cc2)sc2ccc(F)cc12 [2-080]
- Herbicidal effect on B: Japanese bulrush (grade 0-5) [1]: 5 (Herbicidal rate of 90% or more (almost completely withered))
- herbicidal effect rating, A: late watergrass [2]: 2 (Herbicidal rate of 20% or more and less than 40%)
- herbicidal effect rating, C: oval-leafed pondweed [3]: 4 (Herbicidal rate of 70% or more and less than 90%)
- herbicidal effect on D (Chinese sprangletop), rating 0-5 [4]: 5 (Herbicidal rate of 90% or more (almost completely withered))
- herbicidal effect rating, F: southern crabgrass [5]: 2 (Herbicidal rate of 20% or more and less than 40%)
- herbicidal effect rating, I: wild oat [6]: 0 (Herbicidal rate of 5% or less (almost no effect))
- herbicidal effect rating, J: blackgrass [7]: 1 (Herbicidal rate of 5% or more and less than 20%)
- herbicidal effect rating, K: Italian ryegrass [8]: 4 (Herbicidal rate of 70% or more and less than 90%)
- herbicidal effect rating, L: windgrass [9]: 2 (Herbicidal rate of 20% or more and less than 40%)
- herbicidal effect rating, O: lambsquarters [10]: 5 (Herbicidal rate of 90% or more (almost completely withered))
- herbicidal effect on G: green foxtail [11]: 4 (Herbicidal rate of 70% or more and less than 90%)
- herbicidal effect on K: Italian ryegrass [12]: 5 (Herbicidal rate of 90% or more (almost completely withered))
- herbicidal effect on M: velvetleaf [13]: 5 (Herbicidal rate of 90% or more (almost completely withered))
- herbicidal effect on N: redroot pigweed [14]: 5 (Herbicidal rate of 90% or more (almost completely withered))
- herbicidal effect on O: lambsquarters [15]: 5 (Herbicidal rate of 90% or more (almost completely withered))
- herbicidal effect on P: chickweed [16]: 5 (Herbicidal rate of 90% or more (almost completely withered))

SMILES: CCOc1cc(F)ccc1-c1sc2ccc(F)cc2c1-c1c(O)c(C)nn(C)c1=O [2-084]
- Herbicidal effect on B: Japanese bulrush (grade 0-5) [1]: 1 (Herbicidal rate of 5% or more and less than 20%)
- herbicidal effect rating, A: late watergrass [2]: 2 (Herbicidal rate of 20% or more and less than 40%)
- herbicidal effect rating, C: oval-leafed pondweed [3]: 3 (Herbicidal rate of 40% or more and less than 70%)
- herbicidal effect on D (Chinese sprangletop), rating 0-5 [4]: 4 (Herbicidal rate of 70% or more and less than 90%)
- herbicidal effect rating, F: southern crabgrass [5]: 5 (Herbicidal rate of 90% or more (almost completely withered))
- herbicidal effect rating, I: wild oat [6]: 2 (Herbicidal rate of 20% or more and less than 40%)
- herbicidal effect rating, J: blackgrass [7]: 2 (Herbicidal rate of 20% or more and less than 40%)
- herbicidal effect rating, K: Italian ryegrass [8]: 3 (Herbicidal rate of 40% or more and less than 70%)
- herbicidal effect rating, L: windgrass [9]: 1 (Herbicidal rate of 5% or more and less than 20%)
- herbicidal effect rating, O: lambsquarters [10]: 5 (Herbicidal rate of 90% or more (almost completely withered))
- herbicidal effect on G: green foxtail [11]: 5 (Herbicidal rate of 90% or more (almost completely withered))
- herbicidal effect on K: Italian ryegrass [12]: 3 (Herbicidal rate of 40% or more and less than 70%)
- herbicidal effect on M: velvetleaf [13]: 5 (Herbicidal rate of 90% or more (almost completely withered))
- herbicidal effect on N: redroot pigweed [14]: 5 (Herbicidal rate of 90% or more (almost completely withered))
- herbicidal effect on O: lambsquarters [15]: 3 (Herbicidal rate of 40% or more and less than 70%)
- herbicidal effect on P: chickweed [16]: 5 (Herbicidal rate of 90% or more (almost completely withered))

SMILES: CCCC(=O)Oc1c(C)nn(C)c(=O)c1-c1c(-c2ccc(F)cc2OCC)sc2ccc(F)cc12 [2-085]
- Herbicidal effect on B: Japanese bulrush (grade 0-5) [1]: 3 (Herbicidal rate of 40% or more and less than 70%)
- herbicidal effect rating, A: late watergrass [2]: 2 (Herbicidal rate of 20% or more and less than 40%)
- herbicidal effect rating, C: oval-leafed pondweed [3]: 3 (Herbicidal rate of 40% or more and less than 70%)
- herbicidal effect on D (Chinese sprangletop), rating 0-5 [4]: 0 (Herbicidal rate of 5% or less (almost no effect))
- herbicidal effect rating, F: southern crabgrass [5]: 4 (Herbicidal rate of 70% or more and less than 90%)
- herbicidal effect rating, I: wild oat [6]: 2 (Herbicidal rate of 20% or more and less than 40%)
- herbicidal effect rating, J: blackgrass [7]: 0 (Herbicidal rate of 5% or less (almost no effect))
- herbicidal effect rating, K: Italian ryegrass [8]: 0 (Herbicidal rate of 5% or less (almost no effect))
- herbicidal effect rating, L: windgrass [9]: 0 (Herbicidal rate of 5% or less (almost no effect))
- herbicidal effect rating, O: lambsquarters [10]: 3 (Herbicidal rate of 40% or more and less than 70%)
- herbicidal effect on G: green foxtail [11]: 3 (Herbicidal rate of 40% or more and less than 70%)
- herbicidal effect on K: Italian ryegrass [12]: 3 (Herbicidal rate of 40% or more and less than 70%)
- herbicidal effect on M: velvetleaf [13]: 5 (Herbicidal rate of 90% or more (almost completely withered))
- herbicidal effect on N: redroot pigweed [14]: 4 (Herbicidal rate of 70% or more and less than 90%)
- herbicidal effect on O: lambsquarters [15]: 3 (Herbicidal rate of 40% or more and less than 70%)
- herbicidal effect on P: chickweed [16]: 5 (Herbicidal rate of 90% or more (almost completely withered))

SMILES: Cc1nn(C)c(=O)c(-c2c(-c3ccc4c(c3)OCCO4)sc3ccc(F)cc23)c1O [2-092]
- Herbicidal effect on B: Japanese bulrush (grade 0-5) [1]: 3 (Herbicidal rate of 40% or more and less than 70%)
- herbicidal effect rating, A: late watergrass [2]: 0 (Herbicidal rate of 5% or less (almost no effect))
- herbicidal effect rating, C: oval-leafed pondweed [3]: 4 (Herbicidal rate of 70% or more and less than 90%)
- herbicidal effect on D (Chinese sprangletop), rating 0-5 [4]: 4 (Herbicidal rate of 70% or more and less than 90%)
- herbicidal effect rating, F: southern crabgrass [5]: 2 (Herbicidal rate of 20% or more and less than 40%)
- herbicidal effect rating, I: wild oat [6]: 0 (Herbicidal rate of 5% or less (almost no effect))
- herbicidal effect rating, J: blackgrass [7]: 0 (Herbicidal rate of 5% or less (almost no effect))
- herbicidal effect rating, K: Italian ryegrass [8]: 1 (Herbicidal rate of 5% or more and less than 20%)
- herbicidal effect rating, L: windgrass [9]: 0 (Herbicidal rate of 5% or less (almost no effect))
- herbicidal effect rating, O: lambsquarters [10]: 5 (Herbicidal rate of 90% or more (almost completely withered))
- herbicidal effect on G: green foxtail [11]: 4 (Herbicidal rate of 70% or more and less than 90%)
- herbicidal effect on K: Italian ryegrass [12]: 4 (Herbicidal rate of 70% or more and less than 90%)
- herbicidal effect on M: velvetleaf [13]: 5 (Herbicidal rate of 90% or more (almost completely withered))
- herbicidal effect on N: redroot pigweed [14]: 5 (Herbicidal rate of 90% or more (almost completely withered))
- herbicidal effect on O: lambsquarters [15]: 5 (Herbicidal rate of 90% or more (almost completely withered))
- herbicidal effect on P: chickweed [16]: 5 (Herbicidal rate of 90% or more (almost completely withered))
